Residues, ends and D or L forms follow the SMILES beside them. *: point of attachment. Cbz = O=C(OCc1ccccc1)*; CH2F = FC*
Legend:
[1] = system: CARP-1, cyclin B1, Cdc20, Cdh1, APC-2, CDKIs, caspases, p38, Bcl2 family proteins; assay: Western blot of protein levels in treated cells; type: cell-based; conditions: for effect of pre-treatment on CFM-4-dependent loss of cyclin B1 and Cdc20 proteins (WB): pre-treatment before CFM-4
Experimental: (§1) Logarithmically growing cells were either untreated or treated with different agents for various time periods. The cells were lysed to prepare protein extracts. IP was carried out by incubating approximately 1 mg of the protein lysate with appropriate antibodies, and the immunoprecipitates or cell lysates were then electrophoresed on 9-12% SDS-polyacrylamide gels, and transferred to nitrocellulose membranes. The membranes were subsequently probed with various antibodies to determine expression/presence of the corresponding proteins. The cell growth inhibition was assessed by using MTT assay. Briefly, MTT (3-[4,5-Dimethylthiazol-2-yl]-2,5diphenyltetrazolium bromide) was dissolved in sterile 1×PBS to prepare a stock solution of 5 mg/ml. The solution was subsequently filtered through 0.2 μm filter and stored at 2-8° C. 4−5×10^2 cells were seeded in 96-well plates. After 72 h incubation with or without different agents, MTT stock solution was added to each culture being assayed to equal one tenth the original culture volume, followed by incubation of cells at 37° C. for another 2 h. At the end of the incubation, the media was removed and cells were treated with 100-200 μl of DMSO to solubilize the dye. The assessment of the live cells was derived by measuring the absorbance of the converted dye at wavelength of 570 nm.

[2] = biological target: T1, CARP-1 binding with APC-2 (Homo sapiens, UniProt Q8IX12); assay: Fluorescence polarization assay (FPA) for inhibitors of CARP-1-APC-2 binding; conditions: fluorescein-tagged A-epitope peptide and Gst-APC-2 (685-754)
T1 construct: made in house; host or cells: E. coli BL-21 (DE3)
T1 sequence (Q8IX12 951-980 limits assumed): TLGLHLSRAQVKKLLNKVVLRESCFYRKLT
Experimental: Although, several formats for FP are indicated in the published literature (Inglese, J., Johnson, R. L., Simeonov, A., Xia, M., Zheng, W., Austin, C. P., Auld, D. S. (2007) Nat. Chem. Biol. 3(8), 466-79), the assays using 96-well or higher density plates are often and routinely employed. Optimization of FP for HTS involves several steps including the determination of Kd values, optimization of the buffer conditions, incubation and measurement times, and determination of the DMSO tolerance of the assay. Our goal was to minimize variation and to aim for adequate signal:background without adversely effecting the sensitivity of the assay. The FP polarization values in milli-polarization (mp) were measured to determine changes in the mp (Amp=mp of bound peptide mp of free peptide), the Kd and Ki constants of the binding. A 30-mer CARP-1 peptide that contained APC-2-binding epitope (A-epitope peptide) was commercially synthesized (US Biologicals, MA), labeled with fluorescein at the N-terminus, and purified to >98% purity. Increasing concentrations of A-epitope peptide were incubated with the indicated quantities of the affinity-purified Gst-APC-2 (685-754) protein in assay buffer containing 0.01% triton-X100. Affinity-purified Gst-NEMO (221-317) was included as a negative control. The Δmp was measured by excitation at 485 nm and emission at 538 nm.
The kinetics of CARP-1 binding with APC-2 was determined, and whether this binding could be exploited to identify SMIs of CARP-1-APC-2 interaction was investigated. For this purpose, a FPA utilizing the affinity-purified Gst-APC-2 (685-754) protein and the fluorescein-tagged A-epitope peptide was developed as detailed in methods. […] The signal to background ratio of 6 underscored robustness of this assay. Since, the quality (precision) and suitability of the FPA for HTS is usually defined by the Z′ factor (25, 40), we utilized the positive and negative control mean signals (μc+ and μc−, respectively) and their standard deviations (σc+ and σc−) to calculate the Z′ factor using the equation Z′=1−[3(σc++σc−)/(μc+−μc−)]. […]

[3] = biological target: T2, His-TAT-HA-tagged A-epitope peptide [CARP-1 (951-980)] (Homo sapiens, UniProt Q8IX12); assay: In vitro binding of SMIs, immobilized A-epitope peptide pre-incubated with CFM; conditions: 100 μM, 30 min at RT; WB with anti-Gst
T2 construct: wild-type or scrambled His-TAT-HA-CARP-1 (951-980) peptides; made in house; host or cells: E. coli BL-21 (DE3)
T2 sequence (Q8IX12 951-980 limits assumed): T1 sequence (Q8IX12 951-980 limits assumed)
Experimental: (§2) The CFM-4 and 5 were separately dissolved in DMSO to obtain a stock of 20-50 mM. For in vitro binding experiments we utilized affinity-purified Gst-APC-2 (685-754) and His-TAT-HA-tagged A-epitope (WT) peptide. Ten nanogram of the His-TAT-HA-tagged A-epitope (WT) peptide was first allowed to bind with Ni-NTA beads (ProBond, InVitrogen), and then the reaction was incubated with DMSO (control), 100 μM CFM-4, or 100 μM CFM-5 for 30 min at RT. The reactions were then subjected to three washes with the binding buffer, followed by incubation with 10 ng of affinity-purified Gst-APC-2 (685-754) peptide for 30 min at RT. The reactions were washed again for three times with PBS, eluted and analyzed on a SDS-PAGE followed by western blotting (WB) with anti-Gst antibodies. A similar strategy was performed by immobilizing the Gst-APC-2 (685-754) peptide with Gst-beads. The beads were washed, incubated with DMSO or the CFMs, and the reactions washed again. The reactions were then allowed to incubate with affinity purified A-epitope peptide, and the complexes analyzed by SDS-PAGE followed by WB with anti HA-tag antibodies.

Gst-APC-2 (685-754) = biological target: T3, Gst-APC-2 (685-754) (Homo sapiens, UniProt Q9UJX6); assay: In vitro binding of SMIs, immobilized Gst-APC-2 pre-incubated with CFM; conditions: WB with anti HA-tag
T3 construct: immobilizing the Gst-APC-2 (685-754) peptide with Gst-beads; made in house; host or cells: E. coli BL-21 (DE3)
Experimental: as §2

[4] = system: caspase-3, caspase-8, caspase-9, caspase-2; assay: ApoAlert Caspase profiling plate, fluorescence-based; type: cell-based; conditions: pre-treatment before CFM-4
Experimental: For apoptosis ELISA assay, 4−5×10^2 cells were seeded in 96-well plates and treated essentially as indicated in the MTT assay above. Untreated as well as treated cells were lysed, and levels of mono and oligo-nucleosomal DNA fragments in the lysates were determined by measuring optical density of each sample at 405 nm and 495 nm wavelengths. […] For TUNEL labeling, the cells were treated with various agents, fixed, labeled and photographed essentially as detailed in immuno-localization protocols described before (Zhang, L., Levi, E., Majumder, P., Yu, Y., Aboukameel, A., Du, J., Xu, H., Mohammad, R. M., Hatfield, J. S., Wali, A., Adsay, V., Majumdar, A. P. N., and Rishi, A. K. (2007) Mol. Cancer. Ther. 6(5), 1661-1672). […] Cell lysates derived from vehicle DMSO (Control) or CFM-4-treated cells were added to the wells that had immobilized fluorogenic caspase-3, caspase-8, caspase-9, or caspase-2 substrates. The fluorescence released from the activated caspase-dependent cleavage of respective substrate was detected by a plate reader at the excitation and emission wavelengths of 380 nm and 460 nm, respectively.

[5] = system: HBC, colon, prostate, pancreatic cancer, MPM and lymphoma cells; assay: MTT cell viability assay, cancer cells; type: cell-based, human; conditions: combination with CFM-4
Experimental: as §1
To test whether CFMs that interfere with CARP-1 binding with APC-2 modulate cell growth, HBC, colon, prostate, pancreatic cancer, MPM and lymphoma cells, as well as the immortalized, mammary epithelial MCF-10A cells were utilized. The cells were either treated with vehicle (DMSO) or various doses of the respective compound for a period of 72 h, and percent of live/viable cells for each compound was determined relative to the untreated controls as described in Methods.

T3 sequence (Q9UJX6 685-754): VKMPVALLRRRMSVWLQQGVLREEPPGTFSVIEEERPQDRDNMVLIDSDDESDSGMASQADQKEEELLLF

CC[C@H](C)[C@H](NC(=O)[C@H](CCC(=O)O)NC(=O)[C@@H](NC(C)=O)C(C)C)C(=O)N[C@H](C=O)CC(=O)O [Ac-VEOD-CHO, reference compound] (Ac-VEID-aldehyde)
effect of pre-treatment on CFM-4-dependent loss of cyclin B1 and Cdc20 proteins (WB) [1]: blocked CFM-4-dependent loss

O=C1N(CCc2ccccc2)c2ccc(Br)cc2C12NN=C(c1ccccc1)S2 (stereo not shown) [CFM-5, 5-bromo-1-phenethyl-5′-phenyl-3′H-spiro[indoline-3,2′-[1,3,4]thiadiazol]-2-one]
IC50 [2]: 1.4 µM | binding of immobilized A-epitope peptide with Gst-APC-2 (685-754) after pre-incubation with compound [3]: abrogated its binding | binding of immobilized Gst-APC-2 (685-754) with A-epitope peptide after pre-incubation with compound (Gst-APC-2 (685-754)): failed to abolish its binding

CC(C)C[C@H](NC(=O)[C@H](Cc1ccccc1)NC(=O)c1cnccn1)B(O)O [velcade, Bortezomib, reference compound]
CARP-1 levels (WB) ([1]; 50 nM velcade 6 h or 24 h, 20 μM CFM-4 24 h): modest increase in CARP-1 levels | effect on CFM-4-dependent loss of cyclin B1 or Cdc20 proteins (WB) ([1]; 50 nM velcade combined with 20 μM CFM-4): failed to interfere

CC[C@H](C)[C@H](NC(=O)OCc1ccccc1)C(=O)N[C@@H](CCC(=O)OC)C(=O)N[C@H](C(=O)N[C@@H](CC(=O)OC)C(=O)CF)[C@@H](C)O [z-IETD-fmk] (Cbz-IE(OMe)TD(OMe)-CH2F)
effect of pre-treatment on CFM-4-dependent activation of caspase 8 or caspase 9 [4]: abolished activation

COC(=O)CC[C@H](NC(=O)[C@H](CC(C)C)NC(=O)OCc1ccccc1)C(=O)N[C@@H](Cc1cnc[nH]1)C(=O)N[C@@H](CC(=O)OC)C(=O)CF [z-LEHD-fmk] (Cbz-LE(OMe)HD(OMe)-CH2F)
effect of pre-treatment on CFM-4-dependent activation of caspase 8 or caspase 9 [4]: abolished activation

COC(=O)C[C@H](NC(=O)[C@H](C)NC(=O)[C@@H](NC(=O)OCc1ccccc1)C(C)C)C(=O)CF [zVAD-fMK, z-VAD-fmk, reference compound] (Cbz-Val-Ala-Asp(OMe)-CH2F)
effect on cell growth suppression by CFM-4 (MTT) [5]: blocked the ability of CFM-4 to suppress cell growth | effect of pre-treatment on CFM-4-dependent loss of cyclin B1 and Cdc20 proteins (WB) [1]: blocked CFM-4-dependent loss
